Results taken from patent US11932621B1, “2-[9-(2-hydroxypyridin-3-yl)-1,8-dioxo-1,2,3,4,5-6,7,8,9,10-decahydroacridin-10-yl]-acetate as an antimicrobial compound” (KING FAISAL UNIVERSITY, priority 2023, dated 2024).

Key:
Format in all cases: cell-based
Conditions in all cases: after 10, 20, 40 and 60 minutes at all dilutions 1:100, 1:200, 1:400, 1:800
Candida albicans = assay: Antimicrobial screening by agar dilution, Candida albicans
Method: (§1) The antibacterial properties of the synthesized compound 2-[9-(2-hydroxypyridin-3-yl)-1,8-dioxo-1,2,3,4,5,-6,7,8,9,10-decahydroacridin-10-yl]-acetate were studied by the method of agar dilution. Test solutions of each compound was prepared in concentration of 1% using dimethylformamide as a solvent then they are diluted in physiological solution to obtain the final experimental dilutions 1:100, 1:200, 1:400, 1:800. The effect of these substances are compared with furacillin in a controllable study. The testing microbes used were gram positive bacteria Staphylococcus aureus, gram negative bacteria Pseudomonas aeruginosa and Escherichia coli and Candida albicans fungus. The experiments used for this survey were meat-pentonlu agar (EPA) for cultivation of bacteria and Saburo environment for the fungus. Each experiment used 1 mL of test solution on each plate […]. Two drops of emulsified with microbes feel were added. All experimental samples were taken from the agar after 10, 20, 40, 60 minutes in the environment on the basis of Patrk planted. The bacteria were cultivated at a temperature of 37° C. for 1 day and the mushroom was kept in a thermostat for […] at a temperature of 28° C. Then results were checked.

Pseudomonas aeruginosa = assay: Antimicrobial screening by agar dilution, Pseudomonas aeruginosa
Method: as §1

Escherichia coli = assay: Antimicrobial screening by agar dilution, Escherichia coli
Method: as §1

Staphylococcus aureus = assay: Antimicrobial screening by agar dilution, Staphylococcus aureus
Method: as §1

Measured: inhibition activity

CCOC(=O)CN1C2=C(C(=O)CCC2)C(c2cccnc2O)C2=C1CCCC2=O [2-[9-(2-hydroxypyridin-3-yl)-1,8-dioxo-1,2,3,4,5,-6,7,8,9,10-decahydroacridin-10-yl]-acetate]
highest inhibition activity: Candida albicans | Pseudomonas aeruginosa | Escherichia coli | Staphylococcus aureus
